Molecules are shown by their SMILES. ± gives the standard deviation of the averaged measurements.

The source of these data is the supplement of paper PMC5579334.

The test system of test [1] is HSC1 (primary human Schwann cells). The test can be described thus: drug sensitivity score (DSS, CellTiter-Glo viability, 72 h) (DSS (dimensionless)); higher = more sensitive; extreme values may be limits of the assay. The method in brief:
(§1)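 After seeding 750–1000 cells per well of MPNST cell lines or primary human Schwann cells into 384-well plates preprinted with each compound at five concentrations in 10-fold steps, plates were kept 72 h at 37 °C, 5% CO2. Viability was read as CellTiter-Glo ATP luminescence relative to vehicle and positive-control wells, with duplicates averaged where present. The data were fitted with four-parameter logistic models. Drug sensitivity score and relative IC50, censored at the top concentration, derive from the fits, and percent inhibition refers to the top concentration.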
Background: ATP-based viability assays read luminescence as a measure of living cells.

The test system of test [2] is HS-Sch-2. The test is described as above. The method in brief:
as §1

Test [3] concerns HSC2 (primary human Schwann cells). Described as above. A digest of the protocol:
as §1

Test [4] concerns HS-PSS. The description is as above. A digest of the protocol:
as §1

For test [5], the system named is STS26T. The test is described as above. The method in brief:
as §1

Test [6] has as its system S1507-2. The test is described as above. A digest of the protocol: as §1
Test [7] deals with S462. Described as above. The method in brief: as §1
Test [8] relates to ST8814. Described as above. A digest of the protocol:
as §1

Test [9] concerns YST-1. The test is described as above. A digest of the protocol:
as §1

Test [10] has as its system HSC1 (primary human Schwann cells). The test can be described thus: % inhibition of CellTiter-Glo viability at highest tested concentration (72 h), relative to DMSO and benzethonium chloride controls; higher = more inhibition. A digest of the protocol: as §1
Test [11] concerns HS-Sch-2. The test is described as above. A digest of the protocol:
as §1

The subject of test [12] is HSC2 (primary human Schwann cells). The test is described as above. A digest of the protocol: as §1
For test [13], the system named is HS-PSS. The test is described as above. A digest of the protocol: as §1
Test [14] deals with STS26T. The test is described as above. The method in brief:
as §1

Test [15] concerns S1507-2. The test is described as above. A digest of the protocol:
as §1

Test [16] deals with S462. Described as above. A digest of the protocol: as §1
Test [17] concerns ST8814. Described as above. A digest of the protocol: as §1
In test [18] the test system is YST-1. The description is as above. A digest of the protocol: as §1
Test [19] deals with HSC1 (primary human Schwann cells). The test can be described thus: drug sensitivity score (DSS, CellTox-Green cytotoxicity, 72 h) (DSS (dimensionless)); higher = more cytotoxic; extreme values may be limits of the assay. A digest of the protocol:
(§2)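 For 72 h at 37 °C, MPNST cell lines and primary human Schwann cells were exposed in 384-well plates to five 10-fold compound dilutions. CellTox-Green, added before seeding at a final 1:1000 dilution, gave fluorescence from DNA released by disrupted cells. Signals were scaled to vehicle and positive-control wells, cultures failing plate quality control were left out, and four-parameter logistic fits were applied. Relative IC50 and drug sensitivity score were derived from the fits, with IC50 censored at the top concentration.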

The test system of test [20] is HSC2 (primary human Schwann cells). Described as above. A digest of the protocol: as §2
Test [21] relates to HS-PSS. The description is as above. The method in brief: as §2
Test [22] has as its system STS26T. Described as above. The method in brief: as §2
The test system of test [23] is S1507-2. The description is as above. A digest of the protocol:
as §2

The subject of test [24] is ST8814. Described as above. The method in brief:
as §2

By % inhibition is commonly meant the drop in the measured response relative to a control, in per cent. As to `CCC/C=C/C=C/C(=O)O[C@H]1/C(=C/C(=O)OC)C[C@H]2C[C@H]([C@@H](C)O)OC(=O)C[C@H](O)C[C@@H]3C[C@H](OC(C)=O)C(C)(C)[C@](O)(C[C@@H]4C/C(=C/C(=O)OC)C[C@H](/C=C/C(C)(C)[C@]1(O)O2)O4)O3` [Bryostatin 1] (max concentration tested 100 nM), the drug sensitivity score was found to be 0 in test [1]; 7.06 in the test with HS-Sch-2 [2]; 0 in test [3]; 1.21 in the test on HS-PSS [4]; 2.82 in the test on STS26T [5]; 0.762 ± 1.1 with S1507-2 [6]. Further, the drug sensitivity score in the test with S462 [7] was determined as 1.37 ± 0.77; in the test with ST8814 [8], 0; in the test on YST-1 [9], 0; in test [19] it was 0; in test [20] it was 0; with HS-PSS [21], 0. For the same compound, the drug sensitivity score in the test on STS26T [22] is 0; in the test on S1507-2 [23] it was 2.29 ± 3.2; in the test on ST8814 [24], 0. For the same compound, the “% inhibition” value in [10] was -11.5%; with HS-Sch-2 [11], 19.4%; in test [12], -14.2%; with HS-PSS [13], 11.2%; in the test on STS26T [14], 20.4%; in the test on S1507-2 [15] it was 21.1 ± 2.6%. Moreover, the “% inhibition” value is 24.9 ± 3.1% with S462 [16], -11.8% in the test with ST8814 [17] and 7.32% in the test with YST-1 [18].
Turning to `Nc1cc(C(F)(F)F)c(-c2cc(N3CCOCC3)nc(N3CCOCC3)n2)cn1` [Buparlisib] (max concentration tested 10000 nM), the drug sensitivity score came out at 6.85 in [1]; 8.73 with HS-Sch-2 [2]; 7.01 in test [3]; 6.19 with HS-PSS [4]; 9.07 in the test with STS26T [5]; 8.72 ± 0.83 with S1507-2 [6]. In addition, the drug sensitivity score worked out at 8.35 ± 0.34 in the test on S462 [7]; 8.12 in the test on ST8814 [8]; 12.1 in the test on YST-1 [9]; 5.07 in test [19]; 7.46 in test [20]; 0 with HS-PSS [21]. In addition, the drug sensitivity score in the test on STS26T [22] was 8.28; in the test on S1507-2 [23] it was 5.23 ± 2.9; in the test on ST8814 [24], 4.69. In addition, the “% inhibition” value in test [10] stood at 85.1%; with HS-Sch-2 [11], 95.2%; in test [12] it was 88.1%; in the test with HS-PSS [13] it was 70.9%; with STS26T [14] it was 96.8%; in the test with S1507-2 [15], 88.421 ± 0.034%. For the same compound, the “% inhibition” value in the test with S462 [16] was determined as 97.02 ± 0.16%; in the test with ST8814 [17] it was 90.9%; with YST-1 [18], 95.3%.
On to `CS(=O)(=O)OCCCCOS(C)(=O)=O` [Busulfan] (max concentration tested 100000 nM), for which the drug sensitivity score in [1] worked out at 0; in the test on HS-Sch-2 [2], 0.72; in test [3], 0; with HS-PSS [4], 0; with STS26T [5], 0; with S1507-2 [6], 0. Further, the drug sensitivity score was found to be 0 in the test on S462 [7]; 0 in the test on ST8814 [8]; 2.32 in the test on YST-1 [9]; 0 in test [19]; 0 in [20]; 0 in the test on HS-PSS [21]. Moreover, the drug sensitivity score in the test on STS26T [22], with S1507-2 [23] and with ST8814 [24] was 0 each time. In addition, the “% inhibition” value in [10] is 8.68%; in the test on HS-Sch-2 [11], 17.2%; in [12], -3.16%; with HS-PSS [13] it was 0.44%; in the test with STS26T [14], 3.36%; in the test with S1507-2 [15], -7.23 ± 18%. For the same compound, the “% inhibition” value with S462 [16] is -16.5 ± 19%; in the test with ST8814 [17], 0.917%; in the test on YST-1 [18], 22.8%.
For `CC1=NN(c2ccc(C(=O)O)cc2)C(=O)C1=Cc1ccc(-c2cc(C)c(C)cc2[N+](=O)[O-])o1` [C646] (max concentration tested 25000 nM), the drug sensitivity score was determined as 0 in [1]; 0 with HS-Sch-2 [2]; 0 in test [3]; 0.34 in the test with HS-PSS [4]; 0 in the test with STS26T [5]; 0.311 ± 0.44 with S1507-2 [6]. In addition, the drug sensitivity score was 0.301 ± 0.43 in the test with S462 [7]; 0 in the test with ST8814 [8]; 0.68 with YST-1 [9]; 0 in test [19]; 1.71 in test [20]; 0 with HS-PSS [21]. Moreover, the values for the drug sensitivity score in the test with STS26T [22], in the test on S1507-2 [23] and with ST8814 [24] were 0, 2.69 ± 3.8 and 0, respectively. For the same compound, the “% inhibition” value in [10] was -3.92%; in the test on HS-Sch-2 [11], -1.27%; in test [12], -4.28%; in the test on HS-PSS [13], 17.2%; with STS26T [14], 1.97%; with S1507-2 [15], 9.84 ± 4.1%. Further, the “% inhibition” value in the test with S462 [16] came to 1.13 ± 8.9%; in the test on ST8814 [17] it was 3.46%; with YST-1 [18], 19.6%.
`O=C(O)CCCCC(CCSCc1ccccc1)SCc1ccccc1` (centres undefined) [CPI-613] (max concentration tested 10000 nM): the drug sensitivity score is 0 in [1]; 0 in the test on HS-Sch-2 [2]; 0 in [3]; 0.36 in the test on HS-PSS [4]; 0 in the test with STS26T [5]; 0 with S1507-2 [6]. The drug sensitivity score turned out to be 0 with S462 [7]; 0 with ST8814 [8]; 0.06 in the test with YST-1 [9]; 0 in test [19]; 0 in test [20]; 0 with HS-PSS [21]. Moreover, the drug sensitivity score was 0 in the test with STS26T [22], 0.502 ± 0.71 in the test on S1507-2 [23] and 0 in the test with ST8814 [24]. The “% inhibition” value in test [10] is -3.11%; in the test with HS-Sch-2 [11] it was -6.28%; in [12], -1.05%; with HS-PSS [13], 17%; in the test with STS26T [14], -2.54%; in the test with S1507-2 [15], -8.09 ± 10%. The “% inhibition” value in the test on S462 [16] was -9.93 ± 9.6%; in the test on ST8814 [17], 0.691%; in the test on YST-1 [18] it was 14.3%.
As for `C#Cc1cccc(Nc2ncnc3cc(OC)c(OCCCCCCC(=O)NO)cc23)c1` [CUDC-101] (max concentration tested 10000 nM), the drug sensitivity score in test [1] was 15.8; in the test with HS-Sch-2 [2], 15.7; in test [3] it was 15; in the test on HS-PSS [4] it was 12.6; in the test on STS26T [5], 8.5; in the test on S1507-2 [6], 11.9 ± 0.6. Besides, the drug sensitivity score was 13.3 ± 1.8 with S462 [7]; 12.3 with ST8814 [8]; 20.8 in the test on YST-1 [9]; 11 in test [19]; 11.8 in [20]; 6.98 with HS-PSS [21]. The figures for the drug sensitivity score in the test with STS26T [22], with S1507-2 [23] and in the test on ST8814 [24] were 6, 9.97 ± 2.9 and 9.2, respectively. In addition, the “% inhibition” value stood at 102% in [10]; 101% in the test on HS-Sch-2 [11]; 102% in test [12]; 95% in the test with HS-PSS [13]; 100% in the test with STS26T [14]; 103 ± 1.6% with S1507-2 [15]. Moreover, the “% inhibition” value was determined as 102.2 ± 0.43% with S462 [16], 102% with ST8814 [17] and 99.1% with YST-1 [18].
